Reference: patent US20230085307A1, “PYRIDAZINONE COMPOUND AND HERBICIDE” (NISSAN CHEMICAL CORPORATION, priority 2019, published 2023)

Columns and labels:
green foxtail [1] = assay: Test Example 5: herbicidal effect by foliage application, plastic box (Table 20, symbol G); assay type: in vivo, green foxtail (Setaria viridis); details: foliage application, 320 g/ha, three weeks after application
Method in brief: (§1)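 Post-emergence foliar test in sterilized diluvial soil. Compound applied as water-diluted emulsion at a predetermined rate to 14-day-old plants; evaluation at three weeks.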

barnyard grass [2] = assay: Test Example 4: herbicidal effect by soil treatment (Table 19, symbol H); assay type: in vivo, barnyard grass (Echinochloa crus-galli); details: amount of applied herbicide 320 g/ha
Method in brief: (§2)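 Scoring uses the grading scale of an earlier test, three weeks post-application. Treatment consists of spraying a diluted emulsion formulation across the surface of sterilized diluvial soil in which seeds are buried near 1.5 cm deep; boxes are kept in a greenhouse between 25° C. and 30° C.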

windgrass = assay: Test Example 5: herbicidal effect by foliage application, plastic box (Table 20, symbol L); assay type: in vivo, windgrass (Apera spica-venti); details: foliage application, 320 g/ha; for herbicidal effect grade, L: windgrass: three weeks after application
Method in brief: as §1

Italian ryegrass [3] = assay: Test Example 5: herbicidal effect by foliage application, plastic box (Table 20, symbol K); assay type: in vivo, Italian ryegrass (Lolium multiflorum); details: foliage application, 320 g/ha; for herbicidal effect grade, K: Italian ryegrass: three weeks after application
Method in brief: as §1

wild oat [4] = assay: Test Example 4: herbicidal effect by soil treatment (Table 19, symbol I); assay type: in vivo, wild oat (Avena fatua); details: amount of applied herbicide 320 g/ha
Method in brief: as §2

lambsquarters = assay: Test Example 4: herbicidal effect by soil treatment (Table 19, symbol O); assay type: in vivo, lambsquarters (Chenopodium album); details: amount of applied herbicide 320 g/ha
Method in brief: as §2

velvetleaf [5] = assay: Test Example 4: herbicidal effect by soil treatment (Table 19, symbol M); assay type: in vivo, velvetleaf (Abutilon theophrasti); details: amount of applied herbicide 320 g/ha
Method in brief: as §2

chickweed [6] = assay: Test Example 4: herbicidal effect by soil treatment (Table 19, symbol P); assay type: in vivo, common chickweed (Stellaria media); details: amount of applied herbicide 320 g/ha
Method in brief: as §2

Italian ryegrass [7] = assay: Test Example 4: herbicidal effect by soil treatment (Table 19, symbol K); assay type: in vivo, Italian ryegrass (Lolium multiflorum); details: amount of applied herbicide 320 g/ha
Method in brief: as §2

late watergrass = assay: Test Example 2: herbicidal activity, application during weed generation under submerged conditions (Table 17, symbol A); assay type: in vivo, late watergrass (Echinochloa oryzicola); details: AAH 320 g/ha; application during weed generation, submerged conditions
Method in brief: (§3)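 Mixed weed seedlings in alluvial soil under a 4 cm water layer, greenhouse-grown at 25–30° C. Compound given as a diluted emulsion into the floodwater at the 1–2 leaf stage; response graded after three weeks.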

chickweed [8] = assay: Test Example 5: herbicidal effect by foliage application, plastic box (Table 20, symbol P); assay type: in vivo, common chickweed (Stellaria media); details: foliage application, 320 g/ha; for herbicidal effect grade, P: chickweed: three weeks after application
Method in brief: as §1

Japanese bulrush = assay: Test Example 2: herbicidal activity, application during weed generation under submerged conditions (Table 17, symbol B); assay type: in vivo, Japanese bulrush (Schoenoplectus juncoides); details: AAH 320 g/ha; application during weed generation, submerged conditions
Method in brief: as §3

barnyard grass [9] = assay: Test Example 3: herbicidal effect by foliage application, Wagner pot (Table 18, symbol H); assay type: in vivo, barnyard grass (Echinochloa crus-galli); details: for herbicidal effect on H (barnyard grass), rating 0-5: 320 g/ha
Method in brief: (§4)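 Plants were sown in alluvial soil held under 0.1–0.5 cm standing water and grown 14 days in a greenhouse at 25–30 °C. An emulsifiable formulation, water-diluted to the set dose, was then sprayed onto the foliage, and effects were scored three weeks later using previously defined criteria.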

rice flat sedge = assay: Test Example 3: herbicidal effect by foliage application, Wagner pot (Table 18, symbol E); assay type: in vivo, rice flat sedge (Cyperus iria); details: for herbicidal effect on E (rice flat sedge), rating 0-5: 320 g/ha
Method in brief: as §4

southern crabgrass = assay: Test Example 4: herbicidal effect by soil treatment (Table 19, symbol F); assay type: in vivo, southern crabgrass (Digitaria ciliaris); details: amount of applied herbicide 320 g/ha
Method in brief: as §2

redroot pigweed [10] = assay: Test Example 4: herbicidal effect by soil treatment (Table 19, symbol N); assay type: in vivo, redroot pigweed (Amaranthus retroflexus); details: amount of applied herbicide 320 g/ha
Method in brief: as §2

wild oat [11] = assay: Test Example 5: herbicidal effect by foliage application, plastic box (Table 20, symbol I); assay type: in vivo, wild oat (Avena fatua); details: foliage application, 320 g/ha; for herbicidal effect grade, I: wild oat: three weeks after application
Method in brief: as §1

velvetleaf [12] = assay: Test Example 5: herbicidal effect by foliage application, plastic box (Table 20, symbol M); assay type: in vivo, velvetleaf (Abutilon theophrasti); details: foliage application, 320 g/ha; for herbicidal effect grade, M: velvetleaf: three weeks after application
Method in brief: as §1

persian speedwell = assay: Test Example 5: herbicidal effect by foliage application, plastic box (Table 20, symbol R); assay type: in vivo, Persian speedwell (Veronica persica); details: foliage application, 320 g/ha; for herbicidal effect grade, R: persian speedwell: three weeks after application
Method in brief: as §1

green foxtail [13] = assay: Test Example 4: herbicidal effect by soil treatment (Table 19, symbol G); assay type: in vivo, green foxtail (Setaria viridis); details: amount of applied herbicide 320 g/ha
Method in brief: as §2

redroot pigweed [14] = assay: Test Example 5: herbicidal effect by foliage application, plastic box (Table 20, symbol N); assay type: in vivo, redroot pigweed (Amaranthus retroflexus); details: foliage application, 320 g/ha; for herbicidal effect grade, N: redroot pigweed: three weeks after application
Method in brief: as §1

blackgrass = assay: Test Example 5: herbicidal effect by foliage application, plastic box (Table 20, symbol J); assay type: in vivo, blackgrass (Alopecurus myosuroides); details: foliage application, 320 g/ha; for herbicidal effect grade, J: blackgrass: three weeks after application
Method in brief: as §1

[15] = evaluated three weeks after application
[16] = amount of applied herbicide 320 g/ha

SMILES	herbicidal effect grade, G: green foxtail (green foxtail [1])	herbicidal effect rating, H: barnyard grass (barnyard grass [2])	herbicidal effect grade, L: windgrass (windgrass)	herbicidal effect grade, K: Italian ryegrass (Italian ryegrass [3])	herbicidal effect rating, I: wild oat (wild oat [4])	herbicidal effect rating, O: lambsquarters (lambsquarters)	herbicidal effect rating, M: velvetleaf (velvetleaf [5])	herbicidal effect rating, P: chickweed (chickweed [6])	herbicidal effect rating, K: Italian ryegrass (Italian ryegrass [7])	herbicidal effect rating, A: late watergrass (late watergrass)	herbicidal effect grade, P: chickweed (chickweed [8])	herbicidal effect rating, B: Japanese bulrush (Japanese bulrush)	herbicidal effect on H (barnyard grass), rating 0-5 (barnyard grass [9])	herbicidal effect on E (rice flat sedge), rating 0-5 (rice flat sedge)	herbicidal effect rating, F: southern crabgrass (southern crabgrass)	herbicidal effect rating, N: redroot pigweed (redroot pigweed [10])	herbicidal effect grade, I: wild oat (wild oat [11])	herbicidal effect grade, M: velvetleaf (velvetleaf [12])	herbicidal effect grade, R: persian speedwell (persian speedwell)	herbicidal effect rating, G: green foxtail (green foxtail [13])	also measured
CCCOc1ccc(-c2sc3ccccc3c2-c2c(O)c(C)nn(C)c2=O)cc1 [1-019]	5 (Herbicidal rate of 90% or more (almost completely withered))	3 (Herbicidal rate of 40% or more and less than 70%)	5 (Herbicidal rate of 90% or more (almost completely withered))	4 (Herbicidal rate of 70% or more and less than 90%)	0 (Herbicidal rate of 5% or less (almost no effect))	4 (Herbicidal rate of 70% or more and less than 90%)	0 (Herbicidal rate of 5% or less (almost no effect))	5 (Herbicidal rate of 90% or more (almost completely withered))	3 (Herbicidal rate of 40% or more and less than 70%)	3 (Herbicidal rate of 40% or more and less than 70%)	5 (Herbicidal rate of 90% or more (almost completely withered))	4 (Herbicidal rate of 70% or more and less than 90%)	5 (Herbicidal rate of 90% or more (almost completely withered))	5 (Herbicidal rate of 90% or more (almost completely withered))	0 (Herbicidal rate of 5% or less (almost no effect))	4 (Herbicidal rate of 70% or more and less than 90%)	3 (Herbicidal rate of 40% or more and less than 70%)	5 (Herbicidal rate of 90% or more (almost completely withered))	5 (Herbicidal rate of 90% or more (almost completely withered))	2 (Herbicidal rate of 20% or more and less than 40%)	herbicidal effect grade, N: redroot pigweed (redroot pigweed [14]): 5 (Herbicidal rate of 90% or more (almost completely withered)); herbicidal effect grade, J: blackgrass (blackgrass): 4 (Herbicidal rate of 70% or more and less than 90%)
Cc1nn(C)c(=O)c(-c2c(-c3ccc(OC(C)C)cc3)sc3ccccc23)c1O [1-020]	3 (Herbicidal rate of 40% or more and less than 70%)	5 (Herbicidal rate of 90% or more (almost completely withered))	5 (Herbicidal rate of 90% or more (almost completely withered))	3 (Herbicidal rate of 40% or more and less than 70%)	0 (Herbicidal rate of 5% or less (almost no effect))	4 (Herbicidal rate of 70% or more and less than 90%)	0 (Herbicidal rate of 5% or less (almost no effect))	3 (Herbicidal rate of 40% or more and less than 70%)	3 (Herbicidal rate of 40% or more and less than 70%)	2 (Herbicidal rate of 20% or more and less than 40%)	5 (Herbicidal rate of 90% or more (almost completely withered))	3 (Herbicidal rate of 40% or more and less than 70%)	5 (Herbicidal rate of 90% or more (almost completely withered))	5 (Herbicidal rate of 90% or more (almost completely withered))	0 (Herbicidal rate of 5% or less (almost no effect))	0 (Herbicidal rate of 5% or less (almost no effect))	0 (Herbicidal rate of 5% or less (almost no effect))	3 (Herbicidal rate of 40% or more and less than 70%)	5 (Herbicidal rate of 90% or more (almost completely withered))	5 (Herbicidal rate of 90% or more (almost completely withered))	herbicidal effect grade, N: redroot pigweed (redroot pigweed [14]): 3 (Herbicidal rate of 40% or more and less than 70%); herbicidal effect grade, J: blackgrass (blackgrass): 4 (Herbicidal rate of 70% or more and less than 90%)
CCCCCOc1cccc(-c2sc3ccc(F)cc3c2-c2c(O)c(C)nn(C)c2=O)c1 [2-225]										3 (Herbicidal rate of 40% or more and less than 70%)		3 (Herbicidal rate of 40% or more and less than 70%)									herbicidal effect on H: barnyard grass (barnyard grass [2]): 0 (Herbicidal rate of 5% or less (almost no effect)); herbicidal effect on L: windgrass (criteria 0-5) (windgrass; [15]): 4 (Herbicidal rate of 70% or more and less than 90%); herbicidal effect on K: Italian ryegrass (criteria 0-5) (Italian ryegrass [3]; [15]): 0 (Herbicidal rate of 5% or less (almost no effect)); herbicidal effect on I: wild oat (wild oat [4]): 0 (Herbicidal rate of 5% or less (almost no effect)); herbicidal effect on O: lambsquarters (lambsquarters): 3 (Herbicidal rate of 40% or more and less than 70%); herbicidal effect on M: velvetleaf (velvetleaf [5]): 0 (Herbicidal rate of 5% or less (almost no effect)); herbicidal effect on P: chickweed (chickweed [6]): 0 (Herbicidal rate of 5% or less (almost no effect)); herbicidal effect on K: Italian ryegrass (Italian ryegrass [7]): 0 (Herbicidal rate of 5% or less (almost no effect)); herbicidal effect on P: chickweed (criteria 0-5) (chickweed [8]; [15]): 5 (Herbicidal rate of 90% or more (almost completely withered)); herbicidal effect on H: barnyard grass (barnyard grass [9]; [16]): 4 (Herbicidal rate of 70% or more and less than 90%); herbicidal effect on E: rice flat sedge (rice flat sedge; [16]): 4 (Herbicidal rate of 70% or more and less than 90%); herbicidal effect on F: southern crabgrass (southern crabgrass): 0 (Herbicidal rate of 5% or less (almost no effect)); herbicidal effect on N: redroot pigweed (redroot pigweed [10]): 5 (Herbicidal rate of 90% or more (almost completely withered)); herbicidal effect on I: wild oat (criteria 0-5) (wild oat [11]; [15]): 0 (Herbicidal rate of 5% or less (almost no effect)); herbicidal effect on M: velvetleaf (criteria 0-5) (velvetleaf [12]; [15]): 5 (Herbicidal rate of 90% or more (almost completely withered)); herbicidal effect on R: persian speedwell (criteria 0-5) (persian speedwell; [15]): 5 (Herbicidal rate of 90% or more (almost completely withered)); herbicidal effect on G: green foxtail (green foxtail [13]): 0 (Herbicidal rate of 5% or less (almost no effect)); herbicidal effect on N: redroot pigweed (criteria 0-5) (redroot pigweed [14]; [15]): 5 (Herbicidal rate of 90% or more (almost completely withered)); herbicidal effect on J: blackgrass (criteria 0-5) (blackgrass; [15]): 0 (Herbicidal rate of 5% or less (almost no effect))
